Reference: article PMC8401132 (Molecules, 2021)
Where two headings read alike, the source gives them in different places.

Tests used:
[1] = Cu(II)/metformin complex formation constants by combined potentiometric-Vis titration; type: physicochemical; conditions: 0.1 M KCl, 25.0 °C, [L] = 4 mM, [Cu^2+] = 2 mM, potentiometry/Vis
Protocol: Protonation and complex-formation equilibrium studies were carried out under the same conditions described in previous publications. […]. Combined potentiometric–spectrophotometric measurements were performed for protonation equilibria in the 200–400 nm spectral range and in the 400–800 nm spectral range for copper (II) complexes, using 0.2 and 1 cm path lengths, respectively. Protonation and complex formation data were analyzed using the Hyperquad and HypSpec2014 program.

SW1222 cells [2] = test: CellTiter-Glo ATP cell viability/proliferation, SW1222; type: cell-based, human
Protocol: (§1) SW1222 were cultured in DMEM (Gibco, New York, NY, USA) media supplemented with 10% fetal bovine serum (FBS) (Gibco, New York, NY, USA) and 1% penicillin/streptomycin (Gibco, USA). Both K562 and K562/Adr200 were cultured in RPMI media (Gibco, New York, NY, USA) supplemented with 10% FBS and 1% penicillin/streptomycin. The seeding density for all the three cell lines was 1000 cells per well in 96 wells plates. […] From this experiment, the effective concentration that inhibited the growth of ≥50% of the cells was determined. […] Both metformin and copper sulfate were prepared in sterile nuclease-free water, then added to the media. The cells were maintained in culture for 72 h before any further assessments were done. […] A control sample of untreated cells was included in all experiments. […] The CellTiter-Glo® luminescent cell viability assay was used to determine levels of ATP release from each cell line after 72 h, according to manufacturer’s instructions.

K562 cells [3] = test: CellTiter-Glo ATP cell viability/proliferation, K562; type: cell-based, human; conditions: for IC50: Homo sapiens, K562, 72 h, K562, ATP release; for IC50 / Normalized ATP percentage: 72 h
Protocol: as §1

[4] = tested on: K562-200 (K562/Adr200) cells; test: CellTiter-Glo ATP cell viability/proliferation, K562-200; type: cell-based, human; conditions: for IC50: K562-200, ATP release, 72 h
Protocol: as §1

SW1222 cells [5] = test: Actin stress fiber staining and morphology, SW1222; type: cell-based, human; conditions: SW1222, 15 mM and 50 mM metformin, 72 h
Protocol: (§2) To assess the effects on actin stress fiber organization and cell morphology, rhodamine phalloidin was used. Cells were fixed in 4% paraformaldehyde 72 h post-treatment. Cells were permeabilized for 5 min in prechilled 0.5% Triton × 100, 3 mM MgCl2, and 300 mM sucrose, followed by washing with 1× DPBS. A blocking buffer composed of 5% fetal bovine serum (FBS), 0.1% Tween 20, and 0.02% sodium azide was then added to the cells for 30 min. Rhodamine phalloidin was incubated for one hour after removing and discarding the blocking buffer. Cells were subsequently washed with 1× PBS, and DAPI was added for nucleic acid staining prior to fluorescence imaging.

K562 cells [6] = test: Actin stress fiber staining, K562; type: cell-based, human; conditions: K562, 72 h
Protocol: as §2

K562-200 cells = test: Actin stress fiber staining, K562-200; type: cell-based, human; conditions: K562-200, 72 h
Protocol: as §2

[7] = potentiometry, cited from earlier work
[8] = design: method as in PMID 21168988; conditions: NMR, literature data ref 39; cited from earlier work
[9] = potentiometry, cited from earlier work; remark: listed apart in the source
[10] = tested on: human gastric cancer AGS cells; conditions: 20 mM for 12 h ref 56; cited from earlier work
[11] = tested on: normal colon CCD 841 CoN cells; conditions: 10–50 mM for 48 h ref 56; cited from earlier work
[12] = tested on: embryonic lung HEL 299 cells; conditions: 10–50 mM for 48 h ref 56; cited from earlier work
293 cells = conditions: 10–50 mM for 48 h ref 56; cited from earlier work
[13] = patients with diabetes, observational study published in 2005 ref 13; cited from earlier work
[14] = T2DM / diabetic patients ref 57; cited from earlier work

Compound: CN(C)C(=N)N=C(N)N [metformin, 3-(diaminomethylidene)-1,1-dimethylguanidine]
- Logβ CuL2 [1]: 22.20(7)
- Logβ CuL2H [1]: 28.3(1)
- Logβ CuLH [1]: 17.87(5)
- IC50 (SW1222 cells [2]; Homo sapiens, SW1222, ATP release, 72 h): 15600 µM
- IC50 (K562 cells [3]): 851 µM
- IC50 (K562 cells [3]; as in Figure 7B legend): ~1000 µM
- Normalized ATP percentage (K562 cells [3]; K562, 10 mM metformin): 35.2%
- IC50 ([4]; Homo sapiens, K562, 72 h): 63.1 µM
- IC50 [4]: 63 µM
- Cell shrinkage and rounding (SW1222 cells [5]): dramatically increased
- Lowest concentration showing loss of actin stress fibers (K562 cells [6]): 1 mM
- Lowest concentration showing loss of actin stress fibers (K562-200 cells): 20 µM
- Protonation constant LH ([7]; literature data ref 37): 11.02 [37]
- Protonation constant LH2 ([7]; literature data ref 37): 2.79 [37]
- Protonation constant LH ([7]; literature data ref 38): 11.10 [38]
- Protonation constant LH2 ([7]; literature data ref 38): 2.90 [38]
- Protonation constant LH [8]: 13.8 [39]
- Protonation constant LH2 [8]: 3.1 [39]
- LogK CuL ([9]; literature data ref 38): 8.59 [38]
- LogK CuL2 ([9]; literature data ref 38): 6.35 [38]
- LogK CuL ([9]; literature data ref 42): 7.17 [42]
- LogK CuL2 ([9]; literature data ref 42): 5.13 [42]
- Effect on cell viability [10]: significantly reduced cell viability
- Effect on viability [11]: no significant effect
- Effect on viability [12]: no significant effect
- Effect on viability (293 cells): no significant effect
- Decrease in cancer risk with metformin use [13]: 23%
- Plasma concentration [14]: ~20 µM

Compound: O=S(=O)([O-])[O-].[Cu+2] [Cu(II), copper (II) sulfate]
- Inhibition of cell proliferation (% of the cells) (SW1222 cells [2]; SW1222, 400 µM Cu(II), absence of metformin): ≥ 50%
- Effect on cells (SW1222 cells [2]; SW1222, 5 mM Cu(II), regardless of metformin concentration): almost all cells died
- Inhibition of cell proliferation (% of the cells) (K562 cells [3]; K562, 400 µM Cu(II), absence of metformin): ≥ 50%
- Normalized ATP percentage (K562 cells [3]; K562, 400 µM Cu(II), no metformin): 47.2%
- Effect on cells (K562 cells [3]; K562, 5 mM Cu(II), regardless of metformin concentration): almost all cells died
- Inhibition of cell proliferation (% of the cells) ([4]; K562-200, 400 µM Cu(II), absence of metformin): ≥ 50%
- Effect on cells ([4]; K562-200, 5 mM Cu(II), regardless of metformin concentration): almost all cells died
